Experimental data from US20210277003A1, “OGA INHIBITOR COMPOUNDS” (Janssen Pharmaceutica NV, priority 2018, published 2021).

Target: T1, recombinant human Meningioma Expressed Antigen 5 (MGEA5), also referred to as O-GlcNAcase (OGA) (Homo sapiens, UniProt O60502)
T1 construct: Full length OGA enzyme was purchased at OnGene (cat #TP322411); purchased OnGene (so in the source)
T1 sequence (O60502 1-916): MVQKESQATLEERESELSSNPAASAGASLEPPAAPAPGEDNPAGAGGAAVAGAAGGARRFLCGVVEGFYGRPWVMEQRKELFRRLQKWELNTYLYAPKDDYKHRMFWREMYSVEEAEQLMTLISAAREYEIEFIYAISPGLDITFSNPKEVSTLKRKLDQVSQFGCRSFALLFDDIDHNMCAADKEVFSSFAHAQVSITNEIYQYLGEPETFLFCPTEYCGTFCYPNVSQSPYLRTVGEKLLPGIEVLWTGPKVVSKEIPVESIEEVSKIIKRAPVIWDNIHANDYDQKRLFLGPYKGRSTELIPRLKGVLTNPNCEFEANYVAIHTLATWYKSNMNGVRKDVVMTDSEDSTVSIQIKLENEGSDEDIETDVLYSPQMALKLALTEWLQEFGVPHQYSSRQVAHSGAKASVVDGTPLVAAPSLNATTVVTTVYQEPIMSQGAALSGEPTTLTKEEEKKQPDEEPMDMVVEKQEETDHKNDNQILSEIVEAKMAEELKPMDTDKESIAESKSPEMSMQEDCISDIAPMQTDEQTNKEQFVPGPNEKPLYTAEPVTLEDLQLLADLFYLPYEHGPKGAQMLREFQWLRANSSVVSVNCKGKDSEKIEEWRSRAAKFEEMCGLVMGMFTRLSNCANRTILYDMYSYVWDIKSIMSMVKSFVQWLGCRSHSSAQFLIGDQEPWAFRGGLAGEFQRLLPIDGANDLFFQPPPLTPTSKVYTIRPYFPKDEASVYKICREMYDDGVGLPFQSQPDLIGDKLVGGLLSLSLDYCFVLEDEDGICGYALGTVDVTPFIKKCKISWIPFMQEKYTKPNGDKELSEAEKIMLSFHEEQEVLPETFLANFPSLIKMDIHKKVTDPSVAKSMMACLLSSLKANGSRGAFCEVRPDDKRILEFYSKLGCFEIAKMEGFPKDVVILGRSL
Assay: OGA biochemical assay: inhibition of hydrolysis of fluorescein mono-ß-D-N-Acetyl-Glucosamine (FM-GlcNAc), fluorescence readout
Conditions: FM-GlcNAc substrate; for Emax: read-out: Enzymatic Emax (%); for IC50: read-out: Enzymatic hOGA, pIC50 (converted)
Source text: The assay is based on the inhibition of the hydrolysis of fluorescein mono-ß-D-N-Acetyl-Glucosamine (FM-GlcNAc) (Mariappa et al. 2015, Biochem J 470:255) by the recombinant human Meningioma Expressed Antigen 5 (MGEA5), also referred to as O-GlcNAcase (OGA). The hydrolysis FM-GlcNAc (Marker Gene technologies, cat #M1485) results in the formation of ß-D-N-glucosamineacetate and fluorescein. The fluorescence of the latter can be measured at excitation wavelength 485 nm and emission wavelength 538 nm. An increase in enzyme activity results in an increase in fluorescence signal. Full length OGA enzyme was purchased at OnGene (cat #TP322411). The enzyme was stored in 25 mM Tris.HCl, pH 7.3, 100 mM glycine, 10% glycerol at −20° C. Thiamet G and GlcNAcStatin were tested as reference compounds (Yuzwa et al. 2008 Nature Chemical Biology 4:483; Yuzwa et al. 2012 Nature Chemical Biology 8:393). The assay was performed in 200 mM Citrate/phosphate buffer supplemented with 0.005% Tween-20. 35.6 g Na2HPO4 2 H2O (Sigma, #C0759) were dissolved in 1 L water to obtain a 200 mM solution. 19.2 g citric acid (Merck, #1.06580) was dissolved in 1 L water to obtain a 100 mM solution. pH of the sodium phosphate solution was adjusted with the citric acid solution to 7.2. The buffer to stop the reaction consists of a 500 mM Carbonate buffer, pH 11.0. 734 mg FM-GlcNAc were dissolved in 5.48 mL DMSO to obtain a 250 mM solution and was stored at −20° C. OGA was used at a 2 nM concentration and FM-GlcNAc at a 100 uM final concentration. Dilutions were prepared in assay buffer. 50 nl of a compound dissolved in DMSO was dispensed on Black Proxiplate™ 384 Plus Assay plates (Perkin Elmer, #6008269) and 3 μl fl-OGA enzyme mix added subsequently. Plates were pre-incubated for 60 min at room temperature and then 2 μl FM-GlcNAc substrate mix added. […] Plates were briefly centrifuged for 1 min at 1000 rpm and incubate at room temperature for 6 h. To stop the reaction 5 μl STOP buffer were added and plates centrifuge again 1 min at 1000 rpm. Fluorescence was quantified in the Thermo Scientific Fluoroskan Ascent or the PerkinElmer EnVision with excitation wavelength 485 nm and emission wavelength 538 nm. For analysis a best-fit curve is fitted by a minimum sum of squares method. From this an IC50 value and Hill coefficient was obtained. High control (no inhibitor) and low control (saturating concentrations of standard inhibitor) were used to define the minimum and maximum values.

Emax	IC50	Enzymatic hOGA; pIC50	SMILES
102%		7.32	CCC(C)(F)Cn1ccc2c(Nc3c(C)ccnc3C)nccc21 (stereo not drawn) [Compound 108]
103%		6.64	CCC(C)(O)Cn1ccc2c(Nc3c(Cl)cc(F)cc3Cl)nccc21 (stereo not drawn) [Compound 106]
101%	37.2 nM		Fc1cnc(-n2ccc3c(Nc4c(Cl)cccc4Cl)nccc32)nc1 [Compound 164]
98.8%	229 nM		Clc1cccc(Cl)c1Nc1nccc2c1ccn2Cc1ncc[nH]1 [Compound 191]
97.8%	309 nM		Fc1cc(Cl)c(Nc2nccc3c2ccn3-c2ncco2)c(Cl)c1 [Compound 182]
103%		7.25	Fc1cc(Cl)c(Nc2nccc3c2ccn3Cc2cocn2)c(Cl)c1 [Compound 121]
99.2%		6.77	Cn1cnc(Cn2ccc3c(Nc4c(Cl)cc(F)cc4Cl)nccc32)c1 [Compound 120]
96.3%	562 nM		Fc1cc(Cl)c(Nc2nccc3c2ccn3-c2c[nH]cn2)c(Cl)c1 [Compound 190]
99.2%		6.56	Fc1cc(Cl)c(Nc2nccc3c2ccn3Cc2cnco2)c(Cl)c1 [Compound 142]
98.3%	182 nM		Cc1ncnc(C(C)C)c1Nc1nccc2c1ccn2CCC(F)(F)F [Compound 192]
98.1%	562 nM		Cn1ccnc1Cn1ccc2c(Nc3c(Cl)cccc3Cl)nccc21 [Compound 168]
102%		7.62	CCC(C)(F)Cn1ccc2c(Nc3c(Cl)cc(F)cc3Cl)nccc21 (stereo not drawn) [Compound 111]
101%	38 nM		Cc1ccc(-n2ccc3c(Nc4c(Cl)cccc4Cl)nccc32)nc1 [Compound 165]
92.7%	794 nM		N#Cc1cnc(-n2ccc3c(Nc4c(Cl)cc(F)cc4Cl)nccc32)[nH]1 [Compound 181]
100%		7.41	Cc1cnc(Cn2ccc3c(Nc4c(Cl)cc(F)cc4Cl)nccc32)o1 [Compound 143]

Second part, the compound before the results:

SMILES	Emax	IC50	Enzymatic hOGA; pIC50
CCCCn1ccc2c(Nc3c(C)cc(N(C)C(C)=O)cc3C)nccc21 [Compound 102]	99%	229 nM	
N#CCCCn1ccc2c(Nc3c(Cl)cncc3Cl)nccc21 [Compound 36]	100%	275 nM	
Cc1ccnc(C)c1Nc1nccc2c1ccn2CCC1CC1(F)F (stereo not drawn) [Compound 94]	99%		6.86
Cc1ccnc(C)c1Nc1nccc2c1ccn2CCN1CC(F)(F)C1 [Compound 103]	99.7%		6.12
Cc1ccnc(C)c1Nc1nccc2c1ccn2CCC1CCO1 (stereo not drawn) [Compound 21]	96%		6.61
Cc1cncc(C(C)C)c1Nc1nccc2c1ccn2CC1COC1 [Compound 32]	98%	234 nM	
Cc1ccnc(C)c1Nc1nccc2c1ccn2CC1(C)COC1 [Compound 22]	99%		6.54
Cc1cncc(C)c1Nc1nccc2c1ccn2CC1COC1 [Compound 29]	88%	1620 nM	
Clc1cccc(Cl)c1Nc1nccc2c1ccn2CCC1COC1 [Compound 98]	98%		6.54
CCn1ccc2c(Nc3c(C)cc(F)cc3C)nccc21 [Compound 37]	101%	251 nM	
CCCCn1ccc2c(Nc3c(C)cnc4c3OCCO4)nccc21 [Compound 20]	102%		7.4
CCC(Cn1ccc2c(Nc3c(Cl)cc(F)cc3Cl)nccc21)OC (stereo not drawn) [Compound 104]	96.9%		6.14
CCCC(C)n1ccc2c(Nc3c(C)cncc3C)nccc21 (stereo not drawn) [Compound 33]	99%	309 nM	
Cc1ccnc(C)c1Nc1nccc2c1ccn2CC1COC1 [Compound 4]	93%		6.03
Cc1cncc(Cl)c1Nc1nccc2c1ccn2CC1COC1 [Compound 30]	93%	1410 nM	
COCCn1ccc2c(Nc3c(Cl)cncc3Cl)nccc21 [Compound 28]	83%	2190 nM	
CCC(O)Cn1ccc2c(Nc3c(C)ccnc3C)nccc21 (stereo not drawn) [Compound 93]	101%		7.44
CCCCn1ccc2c(Nc3c(C)cnnc3C)nccc21 [Compound 17]	102%		6.94
Cc1ccnc(C)c1Nc1nccc2c1ccn2CC(F)(F)F [Compound 79]	101%	138 nM	
CN(C)S(=O)(=O)Cn1ccc2c(Nc3c(Cl)cncc3Cl)nccc21 [Compound 3]	92%	933 nM	
Cc1ccnc(C)c1Nc1nccc2c1ccn2CC1CC1(F)F (stereo not drawn) [Compound 2]	99%	91.2 nM	
